Measurements as given in patent publication US20260034123A1 (Cedilla Therapeutics, Inc., priority 2022, published 2026).

Experiments:
CDK2/Cyclin E1 = CDK2/Cyclin E1 (Homo sapiens, UniProt P24941); test: Caliper LabChip EZ Reader mobility shift assay; format: biochemical; settings: 2.5 nM CDK2/Cyclin E1(14-475), 100 μM ATP, 30 min preincubation; read-out: Caliper Assay (CDK2/CCNE1): IC50
Procedure: Inhibition of CDK2/Cyclin E1 activity in the presence of compounds of the present disclosure was evaluated using a Caliper LabChip® EZ Reader mobility shift assay. In the assay, activated CDK2/Cyclin E1 catalyzes the phosphorylation of a fluorescently tagged peptide 5-FAM-QSPKKG-CONH2 (PerkinElmer, FL Peptide 18) which induces a difference in capillary electrophoresis mobility. The peptide substrate and product were measured, and the conversion ratio was used to determine the inhibition (as % activity and IC50 values) of CDK2/Cyclin E1. Reactions contained 50 mM HEPES pH 7.5, 10 mM MgCl2, 1 mM EDTA, 2 mM DTT, 0.01% Brij35, 0.5 mg/mL BSA, 0.1% DMSO, 2.5 nM CDK2/Cyclin E1(14-475), 100 μM ATP, and 1.5 μM fluorescent peptide substrate.
Dose titrations of inhibitors in 100% DMSO were combined with 3.25 nM CDK2/Cyclin E1(14-475) and 130 μM of ATP in reaction buffer. The mixtures were incubated for 30 minutes before the addition of fluorescent peptide substrate to initiate the kinase reaction. The final conditions were 2.5 nM CDK2/Cyclin E1(14-475), 100 μM ATP, and 1.5 μM fluorescent peptide. The reactions were stopped after 100 minutes with the addition of EDTA (6 mM final EDTA concentration). The stopped reactions were analyzed on a Caliper LabChip® EZ Reader 11. The conversion ratios were normalized to yield % activity, plotted against compound concentration, and fit to a four-parameter equation to determine the IC50 for each compound.

Kuramochi cells RB-WT = test: IncuCyte Kuramochi cell proliferation assay, RB-WT; format: cell-based; settings: 72 hours, cell count
Method in brief: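 mApple-H2B-labelled Kuramochi cells were treated with a 10-point, half-log series (top 20 µM) and imaged at 0 and 72 h. Fluorescent nuclei were counted, and the 0–72 h fold change was normalized to DMSO wells. GI50 came from dose-response fits.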

Row | Structure (SMILES) | IC50 (CDK2/Cyclin E1) [µM] | IC50 (Kuramochi cells RB-WT) [µM]
1 | CC1(C)C[C@@H]1C(=O)N1CC2(CN(C(=O)c3cncs3)C[C@H]2COC(COC2CCC(F)(F)CC2)c2cccc(C3CCOCC3)n2)C1 (stereo partly drawn) [Compound I-13, ((8S)-8-((2-((4,4-difluorocyclohexyl)oxy)-1-(6-(tetrahydro-2H-pyran-4-yl)pyridin-2-yl)ethoxy)methyl)-2-((S)-2,2-dimethylcyclopropane-1-carbonyl)-2,6-diazaspiro[3.4]octan-6-yl)(thiazol-5-yl)methanone] | 0.1 to 1 | > 10
2 | CC(OC[C@@H]1CN(C(=O)c2cncs2)CC12CN(C(=O)[C@H]1CC1(C)C)C2)c1cccc(C2CCOCC2)n1 (stereo partly drawn) [Compound I-14, ((S)-2-((S)-2,2-dimethylcyclopropane-1-carbonyl)-8-((1-(6-(tetrahydro-2H-pyran-4-yl)pyridin-2-yl)ethoxy)methyl)-2,6-diazaspiro[3.4]octan-6-yl)(thiazol-5-yl)methanone] | 1 to 10 | > 10
3 | O=C(c1cncs1)N1C[C@@H](COCc2cccc(-c3ccc(C(F)(F)F)cc3)n2)C2(CN(CC3COC3)C2)C1 [Compound I-15, (S)-(2-(oxetan-3-ylmethyl)-8-(((6-(4-(trifluoromethyl)phenyl)pyridin-2-yl)methoxy)methyl)-2,6-diazaspiro[3.4]octan-6-yl)(thiazol-5-yl)methanone] | > 10 | > 10
4 | CC(C)(C)CN1CC2(C1)CN(C(=O)c1cncs1)C[C@H]2COCc1cccc(-c2ccc(C(F)(F)F)cc2)n1 [Compound I-16, (S)-(2-neopentyl-8-(((6-(4-(trifluoromethyl)phenyl)pyridin-2-yl)methoxy)methyl)-2,6-diazaspiro[3.4]octan-6-yl)(thiazol-5-yl)methanone] | > 10 | 5 to 10
5 | CC(C)(C)CN1CC2(C1)CN(C(=O)c1cnccn1)C[C@H]2COCc1cccc(-c2ccc(C(F)(F)F)cc2)n1 [Compound I-17, (S)-(2-neopentyl-8-(((6-(4-(trifluoromethyl)phenyl)pyridin-2-yl)methoxy)methyl)-2,6-diazaspiro[3.4]octan-6-yl)(pyrazin-2-yl)methanone] | > 10 | > 10
6 | CC1(C)C[C@@H]1C(=O)N1CC2(CN(C(=O)c3cnccn3)C[C@H]2COCc2cccc(-c3ccc(C(F)(F)F)cc3)n2)C1 [Compound I-18, ((S)-2-((S)-2,2-dimethylcyclopropane-1-carbonyl)-8-(((6-(4-(trifluoromethyl)phenyl)pyridin-2-yl)methoxy)methyl)-2,6-diazaspiro[3.4]octan-6-yl) (pyrazin-2-yl)methanone] | 0.01 to 0.1 | > 10
7 | CC1(C)C[C@@H]1C(=O)N1CC2(CN(Cc3cnccn3)C[C@H]2COCc2cccc(-c3ccc(C(F)(F)F)cc3)n2)C1 [Compound I-19, ((S)-2,2-dimethylcyclopropyl)((S)-6-(pyrazin-2-ylmethyl)-8-(((6-(4-(trifluoromethyl)phenyl)pyridin-2-yl)methoxy)methyl)-2,6-diazaspiro[3.4]octan-2-yl) methanone] | > 10 | > 10
8 | CC1(C)C[C@@H]1C(=O)N1CC2(CN(C(=O)c3cncs3)C[C@H]2COCc2cccc(-c3cccnc3)n2)C1 [Compound I-20, ((S)-8-(([2,3′-bipyridin]-6-ylmethoxy)methyl)-2-((S)-2,2-dimethylcyclopropane-1-carbonyl)-2,6-diazaspiro[3.4]octan-6-yl)(thiazol-5-yl)methanone] | 0.1 to 1 | > 10
9 | CC1(C)C[C@@H]1C(=O)N1CC2(CN(C(=O)c3cncs3)C[C@H]2COCc2cccc(-c3ccc(C(F)(F)F)nc3)n2)C1 [Compound I-21, ((S)-2-((S)-2,2-dimethylcyclopropane-1-carbonyl)-8-(((6′-(trifluoromethyl)-[2,3′-bipyridin]-6-yl)methoxy)methyl)-2,6-diazaspiro[3.4]octan-6-yl)(thiazol-5-yl)methanone] | 0.1 to 1 | > 10
10 | CC1(C)C[C@@H]1C(=O)N1CC2(CN(C(=O)c3cncs3)C[C@H]2COc2cccc3c(C4CCOCC4)cccc23)C1 [Compound I-22, ((S)-2-((S)-2,2-dimethylcyclopropane-1-carbonyl)-8-(((5-(tetrahydro-2H-pyran-4-yl)naphthalen-1-yl)oxy)methyl)-2,6-diazaspiro[3.4]octan-6-yl)(thiazol-5-yl)methanone] | 0.1 to 1 | > 10
11 | CC1(C)C[C@@H]1C(=O)N1CC2(CN(C(=O)c3cncs3)C[C@H]2COc2cncc3c(C4CCOCC4)cccc23)C1 [Compound I-23, ((S)-2-((S)-2,2-dimethylcyclopropanecarbonyl)-8-(((8-(tetrahydro-2H-pyran-4-yl)isoquinolin-4-yl)oxy)methyl)-2,6-diazaspiro[3.4]octan-6-yl)(thiazol-5-yl)methanone] | 1 to 10 | > 10
12 | CC1(C)C[C@@H]1C(=O)N1CC2(CN(C(=O)c3cncs3)C[C@H]2COCc2cccc(C3CCC(OC(F)(F)F)CC3)n2)C1 (stereo partly drawn) [Compound I-24, ((S)-2-((S)-2,2-dimethylcyclopropane-1-carbonyl)-8-(((6-(4-(trifluoromethoxy)cyclohexyl)pyridin-2-yl)methoxy)methyl)-2,6-diazaspiro[3.4]octan-6-yl)(thiazol-5-yl) methanone] | 0.01 to 0.1 | 5 to 10
13 | CC1(C)C[C@@H]1C(=O)N1CC2(CN(C(=O)c3cncs3)C[C@H]2COc2nccc3c(C4CCOCC4)cccc23)C1 [Compound I-25, ((S)-2-((S)-2,2-dimethylcyclopropanecarbonyl)-8-(((5-(tetrahydro-2H-pyran-4-yl)isoquinolin-1-yl)oxy)methyl)-2,6-diazaspiro[3.4]octan-6-yl)(thiazol-5-yl)methanone] | 0.1 to 1 | > 10
14 | CN(Cc1cccc(C2CCOCC2)n1)C[C@@H]1CN(C(=O)c2cncs2)CC12CN(C(=O)[C@H]1CC1(C)C)C2 [Compound I-26, (2-((S)-2,2-dimethylcyclopropanecarbonyl)-8-((methyl((6-(tetrahydro-2H-pyran-4-yl)pyridin-2-yl)methyl)amino)methyl)-2,6-diazaspiro[3.4]octan-6-yl)(thiazol-5-yl) methanone] | > 10 | > 10
15 | CC1(C)C[C@@H]1C(=O)N1CC2(CN(C(=O)c3cncs3)C[C@H]2COCc2cc3ccccc3c(C3CCOCC3)n2)C1 [Compound I-28, ((S)-2-((S)-2,2-dimethylcyclopropane-1-carbonyl)-8-(((1-(tetrahydro-2H-pyran-4-yl)isoquinolin-3-yl)methoxy)methyl)-2,6-diazaspiro[3.4]octan-6-yl)(thiazol-5-yl)methanone] | 0.1 to 1 | > 10
16 | CC1(C)C[C@@H]1C(=O)N1CC2(CN(C(=O)c3cncs3)C[C@H]2COCc2ccn[nH]2)C1 [Compound I-29, ((S)-8-(((1H-pyrazol-5-yl)methoxy)methyl)-2-((S)-2,2-dimethylcyclopropanecarbonyl)-2,6-diazaspiro[3.4]octan-6-yl)(thiazol-5-yl)methanone] | > 10 | > 10
17 | CC1(C)C[C@@H]1C(=O)N1CC2(CN(C(=O)c3cncs3)C[C@H]2COc2cccc3ccc(C4CCOCC4)nc23)C1 [Compound I-30, ((S)-2-((S)-2,2-dimethylcyclopropanecarbonyl)-8-(((2-(tetrahydro-2H-pyran-4-yl)quinolin-8-yl)oxy)methyl)-2,6-diazaspiro[3.4]octan-6-yl)(thiazol-5-yl)methanone] | 1 to 10 | > 10
